{"source": "ChEMBL document CHEMBL1212754", "about": "“SmQnr contributes to intrinsic resistance to quinolones in Stenotrophomonas maltophilia” (2010)", "format_in_all_cases": "functional", "key": {"[1]": {"tested_on": "Stenotrophomonas maltophilia", "experiment": "Antibacterial activity against Stenotrophomonas maltophilia D457 containing chromosomally encoded Smqnr gene by epsilon test"}, "[2]": {"tested_on": "Stenotrophomonas maltophilia", "experiment": "Antibacterial activity against Stenotrophomonas maltophilia MBS108 containing both chromosomally and plasmid encoded Smqnr gene by epsilon test"}, "[3]": {"tested_on": "Stenotrophomonas maltophilia", "experiment": "Antibacterial activity against Stenotrophomonas maltophilia MBS101 containing plasmid encoded Smqnr gene by epsilon test"}, "[4]": {"tested_on": "Stenotrophomonas maltophilia", "experiment": "Antibacterial activity against Stenotrophomonas maltophilia MBS109 containing chromosomally encoded Smqnr gene by epsilon test"}, "[5]": {"tested_on": "Stenotrophomonas maltophilia", "experiment": "Antibacterial activity against Stenotrophomonas maltophilia MBS82 deficient in Smqnr gene by epsilon test"}, "[6]": {"tested_on": "Stenotrophomonas maltophilia", "experiment": "Antibacterial activity against Stenotrophomonas maltophilia MBS100 deficient in Smqnr gene by epsilon test"}}, "data": [{"smiles": "O=C(O)c1cn(C2CC2)c2cc(N3CCNCC3)c(F)cc2c1=O", "note": "[CIPROFLOXACIN]", "values": [{"measurement": "MIC", "setting": "[1]", "value": 0.75, "unit": "µg/mL"}, {"measurement": "MIC", "setting": "[2]", "value": 2, "unit": "µg/mL"}, {"measurement": "MIC", "setting": "[3]", "value": 2, "unit": "µg/mL"}, {"measurement": "MIC", "setting": "[4]", "value": 0.75, "unit": "µg/mL"}]}, {"smiles": "COc1c(N2CCNC(C)C2)c(F)cc2c(=O)c(C(=O)O)cn(C3CC3)c12", "note": "(stereo not drawn) [GATIFLOXACIN]", "values": [{"measurement": "MIC", "setting": "[1]", "value": 0.25, "unit": "µg/mL"}, {"measurement": "MIC", "setting": "[5]", "value": 0.125, "unit": "µg/mL"}, {"measurement": "MIC", "setting": "[2]", "value": 0.75, "unit": "µg/mL"}, {"measurement": "MIC", "setting": "[3]", "value": 0.75, "unit": "µg/mL"}, {"measurement": "MIC", "setting": "[4]", "value": 0.25, "unit": "µg/mL"}, {"measurement": "MIC", "setting": "[6]", "value": 0.125, "unit": "µg/mL"}]}, {"smiles": "C[C@H]1COc2c(N3CCN(C)CC3)c(F)cc3c(=O)c(C(=O)O)cn1c23.C[C@H]1COc2c(N3CCN(C)CC3)c(F)cc3c(=O)c(C(=O)O)cn1c23.O", "note": "[LEVOFLOXACIN]", "values": [{"measurement": "MIC", "setting": "[1]", "value": 0.5, "unit": "µg/mL"}, {"measurement": "MIC", "setting": "[5]", "value": 0.25, "unit": "µg/mL"}, {"measurement": "MIC", "setting": "[2]", "value": 1, "unit": "µg/mL"}, {"measurement": "MIC", "setting": "[3]", "value": 1, "unit": "µg/mL"}, {"measurement": "MIC", "setting": "[4]", "value": 0.5, "unit": "µg/mL"}, {"measurement": "MIC", "setting": "[6]", "value": 0.25, "unit": "µg/mL"}]}, {"smiles": "COc1c(N2C[C@@H]3CCCN[C@@H]3C2)c(F)cc2c(=O)c(C(=O)O)cn(C3CC3)c12", "note": "[MOXIFLOXACIN]", "values": [{"measurement": "MIC", "setting": "[1]", "value": 0.19, "unit": "µg/mL"}, {"measurement": "MIC", "setting": "[5]", "value": 0.064, "unit": "µg/mL"}, {"measurement": "MIC", "setting": "[2]", "value": 0.75, "unit": "µg/mL"}, {"measurement": "MIC", "setting": "[3]", "value": 0.75, "unit": "µg/mL"}, {"measurement": "MIC", "setting": "[4]", "value": 0.19, "unit": "µg/mL"}, {"measurement": "MIC", "setting": "[6]", "value": 0.064, "unit": "µg/mL"}]}, {"smiles": "CC1COc2c(N3CCN(C)CC3)c(F)cc3c(=O)c(C(=O)O)cn1c23", "note": "(stereo not drawn) [OFLOXACIN]", "values": [{"measurement": "MIC", "setting": "[1]", "value": 1, "unit": "µg/mL"}, {"measurement": "MIC", "setting": "[5]", "value": 0.5, "unit": "µg/mL"}, {"measurement": "MIC", "setting": "[2]", "value": 3, "unit": "µg/mL"}, {"measurement": "MIC", "setting": "[3]", "value": 3, "unit": "µg/mL"}, {"measurement": "MIC", "setting": "[4]", "value": 1, "unit": "µg/mL"}, {"measurement": "MIC", "setting": "[6]", "value": 0.5, "unit": "µg/mL"}]}]}
